Series [1] concerns the target T1, EphA2 receptor (Mus musculus, UniProt Q03145). The series is described as follows: ELISA displacement of ephrin-A1 binding from immobilized EphA2 receptor. The note with it: for ability to disrupt the EphA2-ephrin-A1 interaction (in words): ELISA binding assay. As for the experimental part:
The pIC50 values of tested compounds are reported in Table 1, together with the corresponding standard deviations of the mean (SEM).
ELISA assays were performed as previously described. Briefly, compounds were stocked as 5 mM solutions in dimethyl sulfoxide (DMSO) and tested in displacing studies, starting from a concentration of 50 µM. […] The reaction was stopped with 3N HCl 100 µL/well and the absorbance was measured using an ELISA plate reader (Sunrise, TECAN, Männedorf, Switzerland) at 450 nm. IC50 values were determined using one-site competition non-linear regression analysis with Prism software (GraphPad Software Inc., San Diego, CA, USA).
(In general: In an ELISA, binding on a coated surface is turned into a signal by an enzyme label.)

The test system of another series is TGR5 receptor. The note with it: cited from earlier work.
In the next series the test system is FXR. The note with it: cited from earlier work.
The target in series [2] is T1, EphA2 receptor. The note with it: cited from earlier work.
Where [3] appears, read: inhibition of biotinylated ephrin-A1-Fc binding to EphA2-Fc, means ± SEM from at least three independent experiments, read-out: pIC50±SEM (converted).
Where [4] appears, read: ref data from an unpublished study.

Each structure is given as a SMILES string. Where two headings read alike, the source gives them in different places.

The values below come from publication PMC6270184, “Synthesis and Structure-Activity Relationships of Amino Acid Conjugates of Cholanic Acid as Antagonists of the EphA2 Receptor” (Molecules, 2013).

As a reminder, the melting point is the temperature, or range, at which the solid turns liquid.

T1 sequence (Q03145 with tags, fused parts or gaps limits assumed): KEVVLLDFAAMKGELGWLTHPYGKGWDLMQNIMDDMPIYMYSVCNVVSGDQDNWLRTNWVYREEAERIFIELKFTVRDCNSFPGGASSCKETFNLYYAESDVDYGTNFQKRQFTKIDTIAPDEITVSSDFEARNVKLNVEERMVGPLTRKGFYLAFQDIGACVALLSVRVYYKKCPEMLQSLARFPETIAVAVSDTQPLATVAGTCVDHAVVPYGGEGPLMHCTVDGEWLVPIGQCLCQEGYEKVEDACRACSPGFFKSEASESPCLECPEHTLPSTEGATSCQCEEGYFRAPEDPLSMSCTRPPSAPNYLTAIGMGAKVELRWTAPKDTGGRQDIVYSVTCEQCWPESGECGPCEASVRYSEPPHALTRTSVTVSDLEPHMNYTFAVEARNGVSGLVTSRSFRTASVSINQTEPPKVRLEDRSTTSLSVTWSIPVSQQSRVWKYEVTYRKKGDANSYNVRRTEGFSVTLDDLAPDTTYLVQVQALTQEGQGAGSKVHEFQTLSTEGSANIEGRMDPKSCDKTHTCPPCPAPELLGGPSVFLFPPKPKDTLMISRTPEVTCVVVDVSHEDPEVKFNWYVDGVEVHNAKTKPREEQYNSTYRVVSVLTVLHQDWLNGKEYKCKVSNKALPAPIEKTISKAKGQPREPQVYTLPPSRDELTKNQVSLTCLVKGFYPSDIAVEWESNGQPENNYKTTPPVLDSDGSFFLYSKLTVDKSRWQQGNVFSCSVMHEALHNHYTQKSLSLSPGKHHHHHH

As for `C[C@H](CCC(=O)NCCC(=O)O)[C@H]1CC[C@H]2[C@@H]3CC[C@@H]4CCCC[C@]4(C)[C@H]3CC[C@]12C` [Compound 4, N-(5β-Cholan-24-oyl)-β-alanine], the melting point was in the range of 152 to 155 °C. `C[C@H](CCC(=O)N[C@H](Cc1c[nH]c2ccccc12)C(=O)O)[C@H]1CC[C@H]2[C@@H]3CC[C@@H]4CCCC[C@]4(C)[C@H]3CC[C@]12C` [Compound 9, N-(5β-cholan-24-oyl)-D-tryptophan]: the melting point is 141 to 145 °C. Further, the IC50 at EphA2 receptor [1] (setting [3]) is 63.1 µM. Consider `C[C@H](CCC(=O)N[C@@H](Cc1c[nH]c2ccccc12)C(=O)O)[C@H]1CC[C@H]2[C@@H]3CC[C@@H]4C[C@H](O)CC[C@]4(C)[C@H]3CC[C@]12C` [PCM126/UniPR126], for which the “activity on TGR5 receptor (in words)” value in the series with TGR5 receptor (setting [4]) is reported as “micromolar range”. Further, the “interaction with FXR (in words)” value in the series on FXR (setting [4]) is “does not interact”. For the compound `C[C@H](CCC(=O)N[C@@H](Cc1ccccc1)C(=O)O)[C@H]1CC[C@H]2[C@@H]3CC[C@@H]4CCCC[C@]4(C)[C@H]3CC[C@]12C` [Compound 6, N-(5β-Cholan-24-oyl)-L-phenylalanine], the melting point lay in the range of 189 to 192 °C. The IC50 at EphA2 receptor [1] (setting [3]) was 21.4 µM.

In turn, `C[C@H](CCC(=O)N[C@H](Cc1ccccc1)C(=O)O)[C@H]1CC[C@H]2[C@@H]3CC[C@@H]4CCCC[C@]4(C)[C@H]3CC[C@]12C` [Compound 7, N-(5β-cholan-24-oyl)-D-phenylalanine] showed a melting point of 195 to 198 °C. At EphA2 receptor [1] (setting [3]), the IC50 was 26.3 µM. For `C[C@H](CCC(=O)O)[C@H]1CC[C@H]2[C@@H]3CCC4CCCC[C@]4(C)[C@H]3CC[C@]12C` (some centres unmarked) [Compound 1, cholanic acid], the “pIC50, inhibition of the EphA2-ephrin-A1 interaction” value at EphA2 receptor [2] is recorded as 4.91. At EphA2 receptor [1], this compound had an IC50 of 12.3 µM. With `C[C@H](CCC(=O)N[C@@H](Cc1c[nH]c2ccccc12)C(=O)O)[C@H]1CC[C@H]2[C@@H]3CC[C@@H]4CCCC[C@]4(C)[C@H]3CC[C@]12C` [Compound 8, N-(5β-cholan-24-oyl)-L-tryptophan], the melting point is 98 to 101 °C. Further, the IC50 at EphA2 receptor [1] (setting [3]) was 28.2 µM. For `COC(=O)CNC(=O)CC[C@@H](C)[C@H]1CC[C@H]2[C@@H]3CC[C@@H]4CCCC[C@]4(C)[C@H]3CC[C@]12C` [Compound 3, Methyl N-(5β-cholan-24-oyl)glycinate], the “ability to disrupt the EphA2-ephrin-A1 interaction (in words)” value on EphA2 receptor [1] is “inactive”. In addition, at EphA2 receptor [1] (setting [3]), the IC50 was more than 316 µM. For `C[C@H](CCC(=O)NCC(=O)O)[C@H]1CC[C@H]2[C@@H]3CC[C@@H]4CCCC[C@]4(C)[C@H]3CC[C@]12C` [Compound 2, N-(5β-cholan-24-oyl)glycine], the melting point is 192 to 195 °C. On to `C[C@H](CCC(=O)O)[C@H]1CC[C@H]2[C@@H]3CC[C@@H]4C[C@H](O)CC[C@]4(C)[C@H]3CC[C@]12C` [LCA, lithocholic acid], for which the “agonism of TGR5 (in words)” value in the series on TGR5 receptor is “rather potent agonist”. Also, the “agonism of FXR (in words)” value with FXR is “rather potent agonist”. With `C[C@H](CCC(=O)NCCS(=O)(=O)O)[C@H]1CC[C@H]2[C@@H]3CC[C@@H]4CCCC[C@]4(C)[C@H]3CC[C@]12C` [Compound 5, 2-[N-(5β-Cholan-24-oyl)amino]ethanesulfonic Acid], the “ability to disrupt the EphA2-ephrin-A1 interaction (in words)” value on EphA2 receptor [1] is given as “loss of inhibitory activity”. In addition, the IC50 on EphA2 receptor [1] (setting [3]) was more than 316 µM.
